# Data published in patent US10059667B2, “Antidiabetic compounds” (MERCK SHARP & DOHME CORP., priority 2014, dated 2018).
# Tests used:
# Human GPR40 [1] = target: T1, Human GPR40 (Homo sapiens (Human), UniProt O14842); assay: Inositol Phosphate Turnover (IP1) Assay 1, HEK cells stably expressing human GPR40, 3H-inositol SPA; type: cell-based; conditions: HEK cells stably expressing human GPR40, 96-well
# Procedure: (§1) Human and mouse GPR40 stable cell-lines were generated in CHO cells stably expressing NFAT BLA (Beta-lactamase). A human GPR40 stable cell-line was generated in HEK cells stably expressing the aequorin expressing reporter. The expression plasmids were transfected using lipofectamine (Life Technologies) following manufacturer's instructions. Stable cell-lines were generated following drug selection.
# The assay was performed in 96-well format. HEK cells stably expressing human GPR40 were plated to be 60-80% confluent within 72 h. After 72 h, the plates were aspirated and the cells washed with inositol-free DMEM (ICN). The wash media was replaced with 150 μL of 3H-inositol labeling media (inositol-free media containing 0.4% human albumin or 0.4% mouse albumin, 1× pen/strep antibiotics, glutamine, 25 mM HEPES to which was added 3H-myo-inositol NEN #NET114A 1 mCi/mL, 25 Ci/mmol diluted 1:150 in loading media with a final specific radioactivity of 1 μCi/150 μL). Alternatively, the human and mouse albumin can be added after the overnight labeling step before the addition of LiCl.
# The assay was typically run the next day after 18 h labeling. On the day of the assay, 5 μL of 300 mM LiCl was added to all wells and incubated at 37 degrees for 20 min. 0.75 μL of each compound was added and incubated with the cells for 60 min at 37 degrees. The media was then aspirated off and the assay terminated with the addition of 60 μL 10 mM formic acid. The cells were lysed for 60 min at room temperature. 15-30 μL of lysate was mixed with 70 μL/1 mg YSi SPA beads (Amersham) in clear bottom Isoplates. The plates were shaken for 2 h at room temperature. Beads were allowed to settle and the plates were counted in the Wallac Microbeta.
# Human GPR40 [2] = target: T1, Human GPR40; assay: FLIPR assay, agonist-induced calcium mobilization in GPR40/CHO NFAT BLA cells; type: cell-based
# Procedure: as §1
# FLIPR (Fluorimetric Imaging Plate Reader, Molecular Devices) assays were performed to measure agonist-induced calcium mobilization of the stable clones. For the FLIPR assay, one day before assay, GPR40/CHO NFAT BLA cells were seeded into black-wall-clear-bottom 384-well plates (Costar) at 1.4×10e4 cells/20 μL medium/well. The cells were incubated with 20 μl/well of the assay buffer (HBSS, 0.1% BSA, 20 mM HEPES, 2.5 mM probenecid, pH 7.4) containing 8 μM fluo-4, AM, 0.08% pluronic acid at room temperature for 100 minutes. Fluorescence output was measured using FLIPR. Compounds were dissolved in DMSO and diluted to desired concentrations with assay buffer. 13.3 μL/well of compound solution was added.
# T1 sequence (O14842 whole entry): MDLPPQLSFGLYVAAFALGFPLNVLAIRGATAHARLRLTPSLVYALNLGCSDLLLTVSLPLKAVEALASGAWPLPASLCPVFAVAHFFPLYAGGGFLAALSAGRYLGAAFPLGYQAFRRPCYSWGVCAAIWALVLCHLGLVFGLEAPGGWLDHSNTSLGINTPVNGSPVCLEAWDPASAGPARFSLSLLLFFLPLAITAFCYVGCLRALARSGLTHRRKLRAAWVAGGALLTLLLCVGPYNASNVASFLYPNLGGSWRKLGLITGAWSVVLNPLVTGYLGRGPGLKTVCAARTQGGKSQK
Compound,EC50 (Human GPR40 [1]) [nM],EC50 (Human GPR40 [2]) [µM]
"COc1cccc(C2CC2COc2cccc([C@@H](CC(=O)O)C3CC3)c2)c1 (single isomer, unassigned) [Example 62, (3 S)-3-cyclopropyl-3-(3-((2-(3-methoxyphenyl)cyclopropyl)methoxy)phenyl)propanoic acid]",166,0.0057
"COc1cccc(C2CC2COc2cccc([C@@H](CC(=O)O)C3CC3)c2)c1 (single isomer, unassigned) [Example 63, (3 S)-3-cyclopropyl-3-(3-((2-(3-methoxyphenyl)cyclopropyl)methoxy)phenyl)propanoic acid]",348,0.015
"C[C@H](C(=O)O)[C@H](c1cccc(O[C@H]2CCCN(Cc3cc(C(F)(F)F)ccc3C(F)(F)F)C2)c1)C1CC1 [Example 1, (2S,3R)-3-(3-(((S)-1-(2,5-bis(trifluoromethyl)benzyl)piperidin-3-yl)oxy)phenyl)-3-cyclopropyl-2-methylpropanoic acid]",89,0.0019
"O=C(O)C[C@H](c1cccc(OCCC2CCN(Cc3cc(C(F)(F)F)ccc3C(F)(F)F)C2)c1)C1CC1 (stereo partly drawn) [Example 2, (3S)-3-(3-(2-(1-(2,5-Bis(trifluoromethyl)benzyl)pyrrolidin-3-yl)ethoxy)phenyl)-3-cyclopropylpropanoic acid]",1830,0.173
"O=C(O)C[C@H](c1cccc(OCC2CCCCN2Cc2cc(C(F)(F)F)ccc2C(F)(F)F)c1)C1CC1 (stereo partly drawn) [Example 3, (3S)-3-(3-((1-(2,5-Bis(trifluoromethyl)benzyl)piperidin-2-yl)methoxy)phenyl)-3-cyclopropylpropanoic acid]",8380,0.126
"C[C@H](C(=O)O)[C@H](c1cccc(OCC2CN(c3cc(C(F)(F)F)ccc3C(F)(F)F)C2)c1)C1CC1 [Example 4, (2S,3R)-3-(3-((1-(2,5-Bis(trifluoromethyl)phenyl)azetidin-3-yl)methoxy)phenyl)-3-cyclopropyl-2-methylpropanoic acid]",485,0.077
"CC1(COc2cccc([C@@H](CC(=O)O)C3CC3)c2)CN(Cc2cc(C(F)(F)F)ccc2C(F)(F)F)C1 [Example 6, (S)-3-(3-((1-(2,5-Bis(trifluoromethyl)benzyl)-3-methylazetidin-3-yl)methoxy)phenyl)-3-cyclopropylpropanoic acid]",2720,0.095
"C[C@H](C(=O)O)[C@H](c1cccc(O[C@@H]2CCCN(Cc3cc(C(F)(F)F)ccc3C(F)(F)F)C2)c1)C1CC1 [Example 7, (2S,3R)-3-(3-(((R)-1-(2,5-bis(trifluoromethyl)benzyl)piperidin-3-yl)oxy)phenyl)-3-cyclopropyl-2-methylpropanoic acid]",89,0.002
"O=C(O)C[C@H](c1cccc(OC2CC3CN(Cc4cc(C(F)(F)F)ccc4C(F)(F)F)CC3C2)c1)C1CC1 (stereo partly drawn) [Example 8, (3S)-3-(3-((2-(2,5-bis(trifluoromethyl)benzyl)octahydrocyclopenta[c]pyrrol-5-yl)oxy)phenyl)-3-cyclopropylpropanoic acid]",866,0.015
"CC(Oc1cccc([C@H](C2CC2)[C@H](C)C(=O)O)c1)C1CN(Cc2cc(C(F)(F)F)ccc2C(F)(F)F)C1 (stereo partly drawn) [Example 9, (2S,3R)-3-(3-(1-(1-(2,5-Bis(trifluoromethyl)benzyl)azetidin-3-yl)ethoxy)phenyl)-3-cyclopropyl-2-methylpropanoic acid]",217,0.004
"O=C(O)C[C@H](c1cccc(OCC2(F)CN(Cc3cc(C(F)(F)F)ccc3C(F)(F)F)C2)c1)C1CC1 [Example 11, (S)-3-(3-((1-(2,5-Bis(trifluoromethyl)benzyl)-3-fluoroazetidin-3-yl)methoxy)phenyl)-3-cyclopropylpropanoic acid]",967,0.022
"COc1ccc(F)cc1CN1CCC(Oc2cccc([C@@H](CC(=O)O)C3CC3)c2)C1 (stereo partly drawn) [Example 12, (3S)-3-Cyclopropyl-3-(3-((1-(5-fluoro-2-methoxybenzyl)pyrrolidin-3-yl)oxy)phenyl)propanoic acid]",4660,0.111
"O=C(O)C[C@H](c1cccc(OCC2CCN(c3cc(C(F)(F)F)ccc3C(F)(F)F)C2)c1)C1CC1 (stereo partly drawn) [Example 13, (3S)-3-(3-((1-(2,5-Bis(trifluoromethyl)phenyl)pyrrolidin-3-yl)methoxy)phenyl)-3-cyclopropylpropanoic acid]",1850,0.129
"C[C@H](C(=O)O)[C@H](c1cccc(OCC2CC(NCc3cc(C(F)(F)F)ccc3C(F)(F)F)C2)c1)C1CC1 (stereo partly drawn) [Example 14, (2S,3R)-3-(3-((3-((2,5-Bis(trifluoromethyl)benzyl)amino)cyclobutyl)methoxy)phenyl)-3-cyclopropyl-2-methylpropanoic acid]",956,0.026
"O=C(O)C[C@H](c1cccc(OC2CC3(C2)CN(Cc2cc(C(F)(F)F)ccc2C(F)(F)F)C3)c1)C1CC1 [Example 15, (S)-3-(3-((2-(2,5-Bis(trifluoromethyl)benzyl)-2-azaspiro[3.3]heptan-6-yl)oxy)phenyl)-3-cyclopropylpropanoic acid]",2080,0.079
"C[C@H](C(=O)O)[C@H](c1cccc(OCC2CN(c3cc(C(F)(F)F)ccn3)C2)c1)C1CC1 [Example 16, (2S,3R)-3-Cyclopropyl-2-methyl-3-(3-((1-(4-(trifluoromethyl)pyridin-2-yl)azetidin-3-yl)methoxy)phenyl)propanoic acid]",631,0.079
"O=C(O)C[C@H](c1cccc(OCCC2CN(Cc3cc(C(F)(F)F)ccc3C(F)(F)F)C2)c1)C1CC1 [Example 18, (S)-3-(3-(2-(1-(2,5-Bis(trifluoromethyl)benzyl)azetidin-3-yl)ethoxy)phenyl)-3-cyclopropylpropanoic acid]",3710,0.359
"COc1ccc(F)cc1CN1CC(COc2cccc([C@@H](CC(=O)O)C3CC3)c2)C1 [Example 19, (S)-3-Cyclopropyl-3-(3-((1-(5-fluoro-2-methoxybenzyl)azetidin-3-yl)methoxy)-phenyl)propanoic acid]",4780,0.497
"COc1ccc(F)cc1CN1CCC(COc2cccc([C@@H](CC(=O)O)C3CC3)c2)C1 (stereo partly drawn) [Example 20, (3S)-3-Cyclopropyl-3-(3-((1-(5-fluoro-2-methoxybenzyl)pyrrolidin-3-yl)methoxy)phenyl)propanoic acid]",10000,0.266
"C[C@H](C(=O)O)[C@H](c1cccc(OCC2CN(c3ncccc3C(F)(F)F)C2)c1)C1CC1 [Example 21, (2S,3R)-3-Cyclopropyl-2-methyl-3-(3-((1-(3-(trifluoromethyl)pyridin-2-yl)azetidin-3-yl)methoxy)phenyl)propanoic acid]",297,0.013
"CC1(C)CN(Cc2cc(C(F)(F)F)ccc2C(F)(F)F)CC1COc1cccc([C@@H](CC(=O)O)C2CC2)c1 (stereo partly drawn) [Example 22, (3S)-3-(3-((1-(2,5-Bis(trifluoromethyl)benzyl)-4,4-dimethylpyrrolidin-3-yl)methoxy)phenyl)-3-cyclopropylpropanoic acid]",2610,0.085
"O=C(O)C[C@H](c1cccc(OC2CCN(Cc3cc(C(F)(F)F)ccc3C(F)(F)F)C2)c1)C1CC1 (stereo partly drawn) [Example 23, (3S)-3-(3-((1-(2,5-Bis(trifluoromethyl)benzyl)pyrrolidin-3-yl)oxy)phenyl)-3-cyclopropylpropanoic acid]",1040,0.072
"O=C(O)C[C@H](c1cccc(OC2CCCN(Cc3cc(C(F)(F)F)ccc3C(F)(F)F)C2)c1)C1CC1 (stereo partly drawn) [Example 24, (3S)-3-(3-((1-(2,5-Bis(trifluoromethyl)benzyl)piperidin-3-yl)oxy)phenyl)-3-cyclopropylpropanoic acid]",524,0.0074
"C[C@H](C(=O)O)[C@H](c1cccc(OCC2CN(Cc3cc(C(F)(F)F)ccc3C(F)(F)F)C2)c1)C1CC1 [Example 25, (2S,3R)-3-(3-((1-(2,5-Bis(trifluoromethyl)benzyl)azetidin-3-yl)methoxy)phenyl)-3-cyclopropyl-2-methylpropanoic acid]",79,0.0014
C[C@H](C(=O)O)[C@H](c1cccc(OC[C@@H]2CCN(Cc3cc(C(F)(F)F)ccc3C(F)(F)F)C2)c1)C1CC1 [Example 26],55,0.0015
CC(c1cc(C(F)(F)F)ccc1C(F)(F)F)N1CC(COc2cccc([C@H](C3CC3)[C@H](C)C(=O)O)c2)C1 (stereo partly shown) [Example 27],7.6,0.0003
